According to patent US20240400591A1 (Jacobio Pharmaceuticals Co., Ltd., priority 2021, published 2024):
Like-named read-outs stand apart in the source and are kept apart here.

Key:
[1] = tested on: NUGC4 (P53 WT); experiment: Cell viability assay (CellTiter-Glo, 6 days), NUGC4; assay type: cell-based; settings: cell viability, 6 days, CellTiter-Glo, read-out: NUGC4 (P53 WT) IC50
How it was run: (§1)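 After a 6-day compound exposure following overnight plating, ATP luminescence (CellTiter-Glo) gave percent viability relative to DMSO-treated cells and cell-free medium controls. IC50 = concentration at 50% viability, from 4-parameter logistic or Excel fit.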

[2] = tested on: NUGC-3_P53_Luc single clonal cell line (p53 Y220C); experiment: Reporter gene assay (p53 RE luciferase); assay type: cell-based; settings: luciferase reporter, 6 hours, normalized to Ref-1a (10 μM) high control, read-out: p53(Y220C)_NUGC-3 EC50
How it was run: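 Luminescence normalised to DMSO-only (0%) and 10 μM Ref-1a (100%) wells gives % activity, fitted by 4-parameter logistic or Excel to yield EC50 at 50%. Reporter line: NUGC-3 with p53 response element-luc2P, compound-treated 6 h at 37 °C.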

[3] = tested on: NUGC3 (P53 Y220C); experiment: Cell viability assay (CellTiter-Glo, 6 days), NUGC3; assay type: cell-based; settings: cell viability, 6 days, CellTiter-Glo, read-out: NUGC3 (P53 Y220C) IC50
How it was run: as §1

[4] = molecular target: T1, His-p53 Y220C (94-294) protein (Homo sapiens, UniProt P04637, Y220C); experiment: In vitro DNA binding assay (HTRF); assay type: biochemical; settings: % activation normalized to 2 μM Ref-1a high control
T1 construct: His-p53 Y220C (94-294) protein

Structure (SMILES) | IC50 ([1]; Homo sapiens, NUGC-4, 144 h) [nM] | EC50 ([2]; Homo sapiens, NUGC-3, 6 h) [nM] | IC50 ([3]; Homo sapiens, NUGC-3, 144 h) [nM] | EC50 [4] [nM] | EC50 ([2]; Homo sapiens, NUGC-3) [nM] | IC50 [1] [nM] | EC50 [2] [nM] | IC50 [3] [nM]
CNC(=O)c1ccc(NCC#Cc2cc3c(N[C@H]4CCN(C)C[C@H]4F)cccc3n2CC(F)(F)F)c(OC)c1 [Example 111, 4-((3-(4-(((3R,4S)-3-fluoro-1-methylpiperidin-4-yl)amino)-1-(2,2,2-trifluoroethyl)-1H-indol-2-yl)prop-2-yn-1-yl)amino)-3-methoxy-N-methylbenzamide] | 13100 | 160 | 1840 | 101 | – | – | – | –
COc1cc(P(C)(C)=O)ccc1NCC#Cc1sc2c(N[C@@H]3CCN(C4CCOCC4)C[C@@H]3F)cccc2c1CC(F)(F)F [Example 147, (4-((3-(7-(((3S,4R)-3-fluoro-1-(tetrahydro-2H-pyran-4-yl)piperidin-4-yl)amino)-3-(2,2,2-trifluoroethyl)benzo[b]thiophen-2-yl)prop-2-yn-1-yl)amino)-3-methoxyphenyl)dimethylphosphine oxide] | 6830 | 110 | 1470 | 91 | – | – | – | –
[2H]C([2H])([2H])N1CC[C@@H](Nc2cccc3c(CC(F)(F)F)c(C#CCNc4ccc(P(C)(C)=O)cc4OC)sc23)[C@@H](F)C1 [Example 210, (4-((3-(7-(((3S,4R)-3-fluoro-1-(methyl-d3)piperidin-4-yl)amino)-3-(2,2,2-trifluoroethyl)benzo[b]thiophen-2-yl)prop-2-yn-1-yl)amino)-3-methoxyphenyl)dimethylphosphine oxide] | 12000 | – | 1280 | 16 | 30 | – | – | –
COc1cc(P(C)(C)=O)ccc1NCC#Cc1sc2c(NC3CCN(C)CC34CC4)cccc2c1CC(F)(F)F (centres unmarked) [Example 89, (3-methoxy-4-((3-(7-((5-methyl-5-azaspiro[2.5]octan-8-yl)amino)-3-(2,2,2-trifluoroethyl)benzo[b]thiophen-2-yl)prop-2-yn-1-yl)amino)phenyl)dimethylphosphine oxide] | 4540 | – | 820 | 53 | 230 | – | – | –
CN1CC[C@@H](Nc2cccc3c(CC(F)(F)F)c(C#CCOc4ccc(P(C)(C)=O)cc4C(N)=O)sc23)[C@@H](F)C1 [Example 165, 5-(dimethylphosphoryl)-2-((3-(7-(((3S,4R)-3-fluoro-1-methylpiperidin-4-yl)amino)-3-(2,2,2-trifluoroethyl)benzo[b]thiophen-2-yl)prop-2-yn-1-yl)oxy)benzamide] | > 50000 | – | 20500 | 48 | 4220 | – | – | –
COc1c(NCC#Cc2sc3c(N[C@@H]4CCN(C)C[C@@H]4F)cccc3c2CC(F)(F)F)ccc(P(C)(C)=O)c1F [Example 194, (2-fluoro-4-((3-(7-(((3S,4R)-3-fluoro-1-methylpiperidin-4-yl)amino)-3-(2,2,2-trifluoroethyl)benzo[b]thiophen-2-yl)prop-2-yn-1-yl)amino)-3-methoxyphenyl)dimethylphosphine oxide] | 12200 | – | 1750 | 33 | 150 | – | – | –
COc1cc(P(C)(C)=O)ccc1NCC#Cc1sc2c(N[C@@H]3CCN(C)C[C@@H]3Cl)cccc2c1CC(F)(F)F [Example 158, (3S,4R)-3-chloro-N-[2-[3-(4-dimethylphosphoryl-2-methoxy-anilino)prop-1-ynyl]-3-(2,2,2-trifluoroethyl)benzothiophen-7-yl]-1-methyl-piperidin-4-amine] | 3950 | 90 | 370 | 30 | – | – | – | –
CNC(=O)c1ccc(NCC#Cc2sc3c(N[C@@H]4CCN(C)C[C@@H]4F)cccc3c2CC(F)(F)F)c(OCCOC)c1 (racemic) [Example 81, 4-((3-(7-(((Z)-3-fluoro-1-methylpiperidin-4-yl)amino)-3-(2,2,2-trifluoroethyl)benzo[b]thiophen-2-yl)prop-2-yn-1-yl)amino)-3-(2-methoxyethoxy)-N-methylbenzamide] | 8640 | – | 1680 | 87 | 290 | – | – | –
CN1CC[C@@H](Nc2cccc3c(CC(F)(F)F)c(C#CCNc4ccc(P(C)(C)=O)c5ccoc45)sc23)[C@@H](F)C1 [Example 198, (7-((3-(7-(((3S,4R)-3-fluoro-1-methylpiperidin-4-yl)amino)-3-(2,2,2-trifluoroethyl)benzo[b]thiophen-2-yl)prop-2-yn-1-yl)amino)benzofuran-4-yl)dimethylphosphine oxide] | 5100 | – | 260 | 43 | 200 | – | – | –
COc1cc([S@](C)(=N)=O)ccc1NCC#Cc1sc2c(N[C@@H]3CCN(C)C[C@@H]3F)cccc2c1CC(F)(F)F [Example 227, (R)-(4-((3-(7-(((3S,4R)-3-fluoro-1-methylpiperidin-4-yl)amino)-3-(2,2,2-trifluoroethyl)benzo[b]thiophen-2-yl)prop-2-yn-1-yl)amino)-3-methoxyphenyl)(imino)(methyl)-16-sulfanone] | – | – | – | 40 | – | 17600 | 40 | 280
[2H]C([2H])([2H])Oc1cc(P(C)(C)=O)ccc1NCC#Cc1sc2c(N[C@@H]3CCN(C4CCOCC4)C[C@@H]3F)cccc2c1CC(F)(F)F [Example 184, (4-((3-(7-(((3S,4R)-3-fluoro-1-(tetrahydro-2H-pyran-4-yl)piperidin-4-yl)amino)-3-(2,2,2-trifluoroethyl)benzo[b]thiophen-2-yl)prop-2-yn-1-yl)amino)-3-(methoxy-d3)phenyl)dimethylphosphine oxide] | 4460 | – | 440 | 42 | 100 | – | – | –
COc1cc(P(C)(C)=O)ccc1NCC#Cc1sc2c(NC3CCN(C)CC3F)cccc2c1C(O)C(F)(F)F (racemic) [Example 188, (4-((3-(7-((3-fluoro-1-methylpiperidin-4-yl)amino)-3-(2,2,2-trifluoro-1-hydroxyethyl)benzo[b]thiophen-2-yl)prop-2-yn-1-yl)amino)-3-methoxyphenyl)dimethylphosphine oxide(racemic)] | 40600 | – | 1900 | 18 | 60 | – | – | –
COc1cc(P(=O)(C2CC2)C2CC2)ccc1NCC#Cc1sc2c(N[C@@H]3CCN(C)C[C@@H]3F)cccc2c1CC(F)(F)F [Example 141, dicyclopropyl(4-((3-(7-(((3S,4R)-3-fluoro-1-methylpiperidin-4-yl)amino)-3-(2,2,2-trifluoroethyl)benzo[b]thiophen-2-yl)prop-2-yn-1-yl)amino)-3-methoxyphenyl)phosphine oxide] | 9060 | 90 | 1130 | 49 | – | – | – | –
COc1cc(P(C)(C)=O)ccc1NCC#Cc1sc2c(N[C@@H]3CCN(C4CCCC4)C[C@@H]3F)cccc2c1CC(F)(F)F (relative stereo) [Example 104, (4-((3-(7-(((Z)-1-cyclopentyl-3-fluoropiperidin-4-yl)amino)-3-(2,2,2-trifluoroethyl)benzo[b]thiophen-2-yl)prop-2-yn-1-yl)amino)-3-methoxyphenyl)dimethylphosphine oxide] | 1750 | – | 1380 | 82 | 240 | – | – | –
COc1cc(C(=O)NC2CCN(C)CC2(F)F)ccc1NCC#Cc1sc2c(N[C@@H]3CCN(C)C[C@@H]3F)cccc2c1CC(F)(F)F (relative stereo) [Example 94, N-(3,3-difluoro-1-methylpiperidin-4-yl)-4-((3-(7-(((Z)-3-fluoro-1-methylpiperidin-4-yl)amino)-3-(2,2,2-trifluoroethyl)benzo[b]thiophen-2-yl)prop-2-yn-1-yl)amino)-3-methoxybenzamide] | 2750 | – | 1840 | 85 | 190 | – | – | –
COc1cc(P(C)(C)=O)ncc1NCC#Cc1sc2c(N[C@@H]3CCN(C)C[C@@H]3F)cccc2c1CC(F)(F)F [Example 92, (5-((3-(7-(((3S,4R)-3-fluoro-1-methylpiperidin-4-yl)amino)-3-(2,2,2-trifluoroethyl)benzo[b]thiophen-2-yl)prop-2-yn-1-yl)amino)-4-methoxypyridin-2-yl)dimethylphosphine oxide] | 13400 | – | 990 | 47 | 180 | – | – | –
COc1cc(P(C)(C)=O)ccc1NCC#Cc1sc2c(N[C@@H]3CCN(CC(C)C)C[C@@H]3F)cccc2c1CC(F)(F)F (racemic) [Example 101, (4-((3-(7-(((Z)-3-fluoro-1-isobutylpiperidin-4-yl)amino)-3-(2,2,2-trifluoroethyl)benzo[b]thiophen-2-yl)prop-2-yn-1-yl)amino)-3-methoxyphenyl)dimethylphosphine oxide] | 2050 | – | 2050 | 105 | 360 | – | – | –
